US20230248759A1, “ORAL RINSE COMPOSITIONS FOR ALLEVIATING XEROSTOMIA COMPRISING POLYETHYLENE GLYCOL DERIVATIVES” (SunBio Inc., priority 2021, published 2023)

System: cultured cells (L-929)
Experiment: Cytotoxicity test, liquid sample (dilution type), ISO 10993
Assay type: cell-based
Conditions: L-929, liquid test, 0.025 g/ml in media for test material
Procedure: The cytotoxicity test is a test to confirm the safety of the composition according to the present invention, and the presence and degree of a cytotoxic reaction in cultured cells (L-929) was evaluated. A good laboratory practice (GLP) institution was commissioned to perform the test according to each test method presented in ISO 10993.
5-2. Test Method of Liquid Sample: A liquid test solution was prepared in which a dilution solution (2× E-MEM+10% FBS) and the liquid test material were combined/diluted in a 1:1 ratio. The culture medium of cell L-929 was removed from the plate well, replaced with 1 mL of test solution and control medium (diluent), and then the cells were cultured. During culturing, microscopic examinations were carried out every 24, 48, 72±4 hours to evaluate cytotoxicity. Cadmium chloride (100 uM CdCl2) as a positive control and E-MEM+5% FBS as a negative control were also used in the test.
As the evaluation criteria of the cytotoxicity test, a score of 0 to 4 was recorded by evaluating the morphological change of cells and the degree of change in viable cells according to lysis or separation. Scores 3 and 4 were judged to be cytotoxic, and scores of 1 and 2 were judged to be non-cytotoxic.

[Cl][Cd][Cl] [Positive Control, Cadmium chloride]
0/0/0: Cytotoxicity Score 24 hr (24 hr) | Cytotoxicity Score 48 hr (48 hr) | Cytotoxicity Score 72 hr (72 hr)
